The values below come from ChEMBL document CHEMBL1201862, “PubChem BioAssay data set” (2004).

One assay deals with H4. The assay is described as follows: Luminescence Cell-Based Dose Response HTS to Identify Activators of 5'UTR Stem-Loop Driven Prion Protein mRNA Translation in H4 Neuroglioblastoma Cells. [Related pubchem assays: 1829 (Project Summary), 1814 (Primary HTS)]. In kind it is functional. The settings on record: Homo sapiens.
Assay [1] can be described thus: Luminescence Cell-Based Dose Confirmation HTS to Identify Activators of 5'UTR Stem-Loop Driven Alpha-Synuclein mRNA Translation in H4 Neuroglioblastoma Cells. [Related pubchem assays: 1829 (Project Summary), 1814 (Primary HTS)]. In kind it is functional.
Assay [2] is described as follows: Luminescence Cell-Based Dose Response HTS to Identify Activators of Luciferase Translation or Activity in H4 […] Cells. [Related pubchem assays: 1829 (Project Summary), 1814 (Primary HTS)]. In kind it is functional.
Assay [3] deals with FAD-linked sulfhydryl oxidase ALR (Homo sapiens, UniProt P55789). The assay is described as follows: ALR-catalysed DTT oxidation blockers – biochemical, H2O2 detection, luminescence, cherry-pick, dose response (AID 493248).
Assay [4] is described as follows: NIH3T3 cell viability loss – ATP luminescence, mouse fibroblasts, counter-screen, dose response (AID 2010).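 Also: cells exposed to compound for about 90 hours before reading.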 The class given is functional, cell-based. (In general: A counterscreen serves to expose hits that act by an unwanted route or on another target.)
Assay [5] in a line: Trypanosoma cruzi growth suppression in host cells – NIH3T3 host cells, beta-gal luminescence, confirmation (AID 2044).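 Also: intracellular parasites grown in NIH/3T3 mouse fibroblasts as host cells; luminescent beta-galactosidase reporter signal from transgenic T. cruzi replicating inside host cells; inhibitors lower the luminescence signal.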 The class given is functional, cell-based.
A short description of assay [6]: Luminescence Cell-Based Dose Retest to Confirm Inhibitors of Cancer Stem Cells. [Related pubchem assays (depositor defined):AID2717, AID2721]. In kind it is functional. Conditions: Homo sapiens.
Another assay concerns Streptococcus. The assay is described as follows: GAS UMAA2166 growth inhibition – luminescence, BacTiterGlo, counter-screen for streptokinase expression inhibitor project, dose response (AID 1915).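 Also: potency for reduction of bacterial viability or growth.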 The class given is functional, organism-based.
The next assay relates to INS1. The assay is described as follows: INS-1E survival protection against cytokine death – cell-based, luminescence, retest, dose response (AID 449756).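 Also: cell death triggered by IL-1 beta plus TNF-alpha plus IFN-gamma mixture; protective hits raise ATP signal compared with cytokine alone wells.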 The class given is functional. Conditions: Rattus norvegicus.
Assay [7] concerns Streptococcus sp. 'group A'. As to the kind of experiment: Streptococcus pyogenes SK(-)GAS viability under kanamycin – luminescence, BacTiterGlo, confirmation, counter-screen for streptokinase expression inhibitor project, dose response (AID 1900). The class given is functional, organism-based.
For a further assay, the target named is T1, Cytochrome P450 1A2 (Homo sapiens, UniProt P05177).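 Also: PubChem cytochrome P450 panel assay, CYP1A2 panel member.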
T1 sequence (P05177 whole entry): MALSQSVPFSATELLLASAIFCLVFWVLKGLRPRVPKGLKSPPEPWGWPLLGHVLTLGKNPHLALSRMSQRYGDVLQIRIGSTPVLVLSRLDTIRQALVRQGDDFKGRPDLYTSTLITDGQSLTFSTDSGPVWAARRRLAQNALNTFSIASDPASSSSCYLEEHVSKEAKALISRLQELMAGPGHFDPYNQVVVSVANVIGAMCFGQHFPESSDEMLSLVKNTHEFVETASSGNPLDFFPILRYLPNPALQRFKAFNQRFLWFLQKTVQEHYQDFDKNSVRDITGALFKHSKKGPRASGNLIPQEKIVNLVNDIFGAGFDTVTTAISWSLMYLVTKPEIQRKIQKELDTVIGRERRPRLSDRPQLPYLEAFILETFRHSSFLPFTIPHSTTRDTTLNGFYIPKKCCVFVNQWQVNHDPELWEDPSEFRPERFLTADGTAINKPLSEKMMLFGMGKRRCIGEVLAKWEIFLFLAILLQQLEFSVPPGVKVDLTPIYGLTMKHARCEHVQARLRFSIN

In another assay the target is Cytochrome P450 2D6 (Homo sapiens, UniProt P10635).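 Also: CYP2D6 member of a cytochrome P450 panel assay.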
For assay [8], the target named is T2, Rac GTPase-activating protein 1 (Homo sapiens, UniProt Q9H0H5).
T2 sequence (Q9H0H5 whole entry): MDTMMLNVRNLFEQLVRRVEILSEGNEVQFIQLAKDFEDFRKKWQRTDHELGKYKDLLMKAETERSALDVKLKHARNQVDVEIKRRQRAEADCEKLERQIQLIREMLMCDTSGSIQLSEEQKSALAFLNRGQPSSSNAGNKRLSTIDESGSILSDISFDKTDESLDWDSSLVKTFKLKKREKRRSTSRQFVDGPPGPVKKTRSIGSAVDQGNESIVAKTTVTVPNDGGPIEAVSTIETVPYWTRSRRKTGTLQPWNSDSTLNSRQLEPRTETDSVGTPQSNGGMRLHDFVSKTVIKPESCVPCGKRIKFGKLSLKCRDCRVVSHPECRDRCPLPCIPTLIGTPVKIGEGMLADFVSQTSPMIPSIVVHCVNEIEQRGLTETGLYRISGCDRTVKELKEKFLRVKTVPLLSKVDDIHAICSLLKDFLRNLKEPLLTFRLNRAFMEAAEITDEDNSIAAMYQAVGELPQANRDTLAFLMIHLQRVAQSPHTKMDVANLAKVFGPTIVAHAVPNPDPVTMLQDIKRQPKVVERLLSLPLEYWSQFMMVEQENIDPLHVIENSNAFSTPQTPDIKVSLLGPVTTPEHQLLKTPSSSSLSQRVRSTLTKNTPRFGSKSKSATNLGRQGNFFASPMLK
The assay is described as follows: blockers of MgcRacGAP-driven Rac1 GTP hydrolysis – biochemical, ADP Hunter fluorescence, primary and confirmatory, confirmation (AID 624330). In kind it is functional.

For assay [9], the target named is T3, Corticotropin-releasing factor receptor 2/Corticotropin-releasing factor-binding protein (Homo sapiens, UniProt P24387+Q13324).
T3 sequence (Q13324 whole entry): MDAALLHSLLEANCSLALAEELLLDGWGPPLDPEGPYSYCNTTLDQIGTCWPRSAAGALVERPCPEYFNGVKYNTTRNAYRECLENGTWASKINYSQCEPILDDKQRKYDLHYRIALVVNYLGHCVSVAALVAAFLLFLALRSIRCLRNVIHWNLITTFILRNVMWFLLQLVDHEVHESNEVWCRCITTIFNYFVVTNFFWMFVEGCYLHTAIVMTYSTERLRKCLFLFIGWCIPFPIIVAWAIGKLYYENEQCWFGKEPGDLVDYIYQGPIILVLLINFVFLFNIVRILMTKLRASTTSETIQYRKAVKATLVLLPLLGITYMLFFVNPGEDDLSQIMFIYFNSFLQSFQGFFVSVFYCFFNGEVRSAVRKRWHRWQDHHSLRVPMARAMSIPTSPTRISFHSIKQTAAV
T3 sequence (P24387 whole entry): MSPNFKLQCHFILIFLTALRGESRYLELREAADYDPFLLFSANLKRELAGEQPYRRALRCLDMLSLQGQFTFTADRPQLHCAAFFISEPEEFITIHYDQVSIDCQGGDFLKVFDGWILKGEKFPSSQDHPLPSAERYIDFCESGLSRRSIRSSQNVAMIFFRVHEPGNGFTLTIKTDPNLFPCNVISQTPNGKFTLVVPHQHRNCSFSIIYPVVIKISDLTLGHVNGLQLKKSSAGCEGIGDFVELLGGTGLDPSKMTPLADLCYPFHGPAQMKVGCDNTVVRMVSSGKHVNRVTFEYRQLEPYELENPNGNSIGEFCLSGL
The assay is described as follows: activators of CRF receptor 2 with binding protein – uHTS hits, confirmation (AID 602473). The class given is functional. The settings on record: read-out: EC50_Mean.

Each structure is given as a SMILES string. Activity calls are given as the source filed them. Rule as the data show it, for most assays here: actives have a measured EC50 and inactives only a lower limit.

Chain of FAD-linked sulfhydryl oxidase ALR (P55789 whole entry): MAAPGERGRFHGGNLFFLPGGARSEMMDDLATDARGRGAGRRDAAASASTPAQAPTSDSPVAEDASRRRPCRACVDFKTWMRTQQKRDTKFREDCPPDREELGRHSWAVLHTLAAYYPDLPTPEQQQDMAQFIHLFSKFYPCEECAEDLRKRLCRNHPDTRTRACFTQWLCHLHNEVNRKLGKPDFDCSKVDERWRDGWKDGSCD
Chain of Cytochrome P450 2D6 (P10635 whole entry): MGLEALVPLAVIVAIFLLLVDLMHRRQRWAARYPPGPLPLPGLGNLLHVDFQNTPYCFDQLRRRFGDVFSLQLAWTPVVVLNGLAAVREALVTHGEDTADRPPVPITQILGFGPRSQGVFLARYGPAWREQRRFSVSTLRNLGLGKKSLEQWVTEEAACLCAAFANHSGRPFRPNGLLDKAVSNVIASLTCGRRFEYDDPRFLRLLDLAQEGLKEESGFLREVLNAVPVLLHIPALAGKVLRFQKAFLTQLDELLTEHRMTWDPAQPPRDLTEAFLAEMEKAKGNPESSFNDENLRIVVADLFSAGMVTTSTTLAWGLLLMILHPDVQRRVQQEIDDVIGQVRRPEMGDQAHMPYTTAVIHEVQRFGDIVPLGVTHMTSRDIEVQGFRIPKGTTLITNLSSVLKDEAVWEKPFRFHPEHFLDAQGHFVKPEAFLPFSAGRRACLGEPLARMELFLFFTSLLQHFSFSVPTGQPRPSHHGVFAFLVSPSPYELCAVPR

Regarding `CC1CCCCC12NC(=O)N(CC(=O)NC(=O)Nc1ccc3c(c1)OCCO3)C2=O` (configuration not stated), the EC50 in the assay with H4 was 0.117 µM (active); in assay [1], 0.111 µM (active); in [2], 0.483 µM (active).

By AC50 is commonly meant the midpoint of the concentration-response curve, whichever way the signal moves. As for `CC(=N\Nc1ccccc1)/C(=N/O)C(=O)Nc1ccccc1`, the AC50 in assay [3] was 2.49 µM (active).

`COCCn1c(C2CCCCC2)nc2sc3ccccc3c(=O)c2c1=O`: the EC50 in assay [4] was > 60 µM (not active); in assay [5] it was 2.28 µM (active).

As to `CCN(CC)c1ccc(/C=N/NC(=O)CCC(=O)NCc2ccccc2)c(O)c1`, the values for the AC50 (in assay [6]; in the assay with INS1) were 5.66 µM (active) and 1.7 µM (active), respectively. Also, the values for the EC50 (with Streptococcus; in [7]) were 4.53 µM (active) and 3.22 µM (active), respectively.

On to `CCn1c(=N)n(CC(=O)C23CC4CC(CC(C4)C2)C3)c2ccccc21`, for which the results for the EC50 in [4] and in assay [5] were > 60 µM (not active) and 0.223 µM (active), respectively.

For `COc1ccc(C2=C/C(=C\c3ccccc3OC(C)=O)C(=O)O2)cc1`, the EC50 with H4 is 48.4 µM (active); in assay [1] it was 18.6 µM (active); in assay [2] it was 90 µM (active).

Regarding `Cc1ccc(/C=C2\C(=O)NC(=O)N(Cc3ccccc3Cl)C2=O)o1`, the AC50 in [3] was 0.494 µM (active).

With `Cc1ccc(-c2nc3ncccc3o2)cc1NC(=O)c1ccc([N+](=O)[O-])o1`, the EC50 (in the assay with H4; in [1]; in assay [2]) was > 120 µM (not active) in each case.

With `O=C(Nc1nc2ccccc2n1Cc1ccccc1)c1ccc(COc2ccccc2[N+](=O)[O-])o1`, the values for the EC50 in [4] and in [5] were > 60 µM (inconclusive) and 1.25 µM (active), respectively. Moreover, the results for the AC50 on Cytochrome P450 1A2 and on Cytochrome P450 2D6 were 1.78 µM (inconclusive) and 17.8 µM (inconclusive), respectively.

As to `Nc1cc(O)nc(SCc2csc(-c3ccccc3)n2)n1`, the half-maximal activity concentration (AC50) in [3] was 5.71 µM (active).

The term IC50 denotes the concentration needed to halve the response being measured. Consider `Cc1cc(C)c(S(=O)(=O)Nc2ccc(O)cc2)c(C)c1`, for which, in assay [3], the AC50 is 0.694 µM (active). Further, in assay [8], the half-inhibitory concentration (IC50) is 69.7 µM (active).

Consider `CN1C(=O)C(=C/C=C/Nc2ccccc2)C(=O)N(C)C1=O`, for which, in assay [9], the EC50 is > 53 µM (inactive).

Consider `O=C(Nc1ccc(O)cc1)c1cc(S(=O)(=O)N2CCCC2)ccc1Cl`, for which the AC50 in assay [3] was 2.49 µM (active).

For `COc1ccc2c(c1)NC(C)(C)C=C2C`, the EC50 in assay [4] was > 60 µM (not active); in [5], 2.71 µM (active).

For `Cn1nnnc1SC1CC(=O)N(c2ccccc2)C1=O` (configuration not stated), the EC50 in assay [4] is 7.1 µM (active); in assay [5], 3.7 µM (active).

In the case of `COc1ccc(C2CC(c3ccccc3)=NN2C(=O)COC(=O)c2nc3nc(C)cc(C)n3n2)cc1` (configuration not stated), the EC50 in [4] is > 60 µM (not active); in assay [5] it was 3.19 µM (active).

`COc1ccc(-c2cc(C#N)nc(N3CCN(C)CC3)n2)cc1`: the EC50 was > 30 µM (not active) in assay [4] and 1.95 µM (active) in assay [5].

Take `CCCCOc1ccc(-c2nnn(CC(=O)NCc3ccco3)n2)cc1`: the values for the EC50 (in the assay on H4; in assay [1]; in assay [2]) were 10 µM (active), > 120 µM (not active) and 24.3 µM (active), respectively.

Take `Nc1n[nH]c(Nc2ccccc2)n1`: in [3], the AC50 was 1.79 µM (active).

As for `O=C(c1cc(-c2ccc3c(c2)OCO3)on1)N1CCN(c2ccccc2)CC1`, the figures for the EC50 (with H4; in assay [1]; in assay [2]) were 4.67 µM (active), 0.793 µM (active) and 0.817 µM (active), respectively.

Take `S=C(NCCN1CCOCC1)Nc1ccc(-c2nc3ccccc3[nH]2)cc1`: the EC50 in the assay on H4 was 16.5 µM (active); in assay [1], 16.3 µM (active); in assay [2] it was 10.7 µM (active).

For `CC(c1nnc(S)n1-c1ccc(F)cc1)N1CCCCC1` (configuration not stated), the AC50 in [3] is 5.03 µM (active).

In the case of `O=C(CCc1ccccc1)Nc1ccc(Cl)cn1`, the EC50 in the assay on H4 was 19.8 µM (active); in assay [1], > 120 µM (not active); in assay [2] it was 1.18 µM (active).

`COc1ccccc1N1CCN(CCc2nnc(S)n2-c2ccccc2)CC1`: the half-maximal activity concentration (AC50) in [3] is 2.88 µM (active).

Turning to `CNC(=S)N/N=C/c1ccc(N2CCOCC2)s1`, the EC50 in assay [4] and in [5] was > 60 µM (not active) throughout. In [8], the IC50 is 28.3 µM (active).

`Clc1cccc(Cl)c1/C=C/c1cc[nH]n1`: the EC50 was 27 µM (active) in the assay on H4, > 120 µM (not active) in [1] and 41.2 µM (active) in assay [2].

Regarding `Oc1ccccc1CNc1cnc2ccccc2c1`, in assay [3], the AC50 was 37.9 µM (active).

Consider `Cc1ccc(Cl)cc1N1CCN(Cc2cc3c(cc2O)CCC3)CC1`, for which the EC50 in assay [4] is > 60 µM (not active); in [5], 2.65 µM (active).

For the molecule `CC1CCc2c(nc3ncnn3c2NCCc2ccccc2F)C1` (configuration not stated), the EC50 (with H4; in assay [1]; in [2]) was > 120 µM (not active) each time.

`CN1/C(=C\C(=O)c2ccco2)C(C)(C)c2ccccc21`: the AC50 with INS1 is 6.55 µM (active).

Regarding `CCOC(=O)c1c(NC(=O)C[n+]2ccc(N(C)C)cc2)sc(C)c1C`, the EC50 in assay [4] was > 60 µM (not active); in [5], 1.44 µM (active).

`Nc1ccc(Cl)cc1/C(=N/O)c1ccccc1`: the AC50 in assay [3] was 22.8 µM (active).

In the case of `CN(Cc1nc(-c2ccccn2)no1)S(=O)(=O)c1ccc(Cl)cc1`, the EC50 in assay [9] was > 53 µM (inactive).

As to `CCC(CC)C(=O)c1c[nH]c(C(=O)NCc2ccccn2)c1`, the AC50 in the assay with INS1 was > 260 µM (inactive).

`c1ccc(NC2=Nc3ccccc3CC2)cc1`: the EC50 was > 120 µM (not active) in the assay on H4, 10.9 µM (active) in assay [1] and 21.1 µM (active) in [2].
